Read-outs that look alike come from different tables or passages of the source.
Key:
[1] = tested on: U251 (human glioma cells); test: CCK-8 cytotoxic assay, U251; format: cell-based; conditions: read-out: IC50 ± SD, U251
From the text: (§1) U251 (human glioma cells), HeLa (human cervical cancer cells), and HepG2 (human hepatic cancer cells) were purchased from the Chinese Academy of Sciences (China), and Capan-2 (human pancreatic cancer cells) were obtained from Nanjing Cobioer Biosicences (Nanjing, China). American Type Culture Collection (ATCC) provided LN229 (human glioma cells). NHA (Gibco Human Astrocytes) and Gibco Astrocyte Medium (DMEM, N-2 Supplement, One Shot fetal bovine serum) were purchased from ThermoFisher Scientific (Waltham, MA, USA). The LN229, U251, HepG2 and HeLa cells were cultured in DMEM (Procell, Wuhan, China). The Capan-2 cells were cultured in RPMI-1640 (Procell, Wuhan, China) and NHA cells were cultured in Gibco Astrocyte Medium, supplemented with 10% FBS (Solarbio, Beijing, China) and 1% Penicillin–Streptomycin (Elabscience Biotechnology Co.,Ltd, Wuhan, China) at 37 °C with 5% CO2.
(§2) In the exponential phase of the growth, five tumor cell lines and one normal human astrocytes were plated onto 96-well plates at a concentration of 8000 cells/well for 24 h. Compounds 1–12 were prepared to various concentrations (64, 32, 16, 8, 4, 2, 1 and 0.5 µM in medium containing less than 0.1% DMSO) and incubated in 96-well plates (each concentration in four-fold wells) for 24 h. Cell viability was determined according to reported assay methods using the commercial CCK-8 kit (Elabscience Biotechnology Co., Ltd., Wuhan, China). The optical density (OD) of each well was measured with an AMR-100 microplate reader at 450 nm (Allsheng Corporation, Hangzhou, China). Cytotoxicity emerged as the value of the drug concentration at the inhibition of cell growth by 50% (IC50). The experiments were conducted for three independent replicates, and Doxorubicin was used as the positive control.

[2] = tested on: LN229 (human glioma cells); test: CCK-8 cytotoxic assay, LN229; format: cell-based; conditions: read-out: IC50 ± SD, LN229
From the text: as §1, §2

[3] = tested on: HeLa (human cervical cancer cells); test: CCK-8 cytotoxic assay, HeLa; format: cell-based; conditions: read-out: IC50 ± SD, HeLa
From the text: as §1, §2

[4] = tested on: HepG2 (human hepatic cancer cells); test: CCK-8 cytotoxic assay, HepG2; format: cell-based; conditions: read-out: IC50 ± SD, HepG2
From the text: as §1, §2

[5] = tested on: Capan-2 (human pancreatic cancer cells); test: CCK-8 cytotoxic assay, Capan-2; format: cell-based; conditions: read-out: IC50 ± SD, Capan-2
From the text: as §1, §2

[6] = tested on: NHA (normal human astrocytes); test: CCK-8 cytotoxic assay, NHA normal astrocytes; format: cell-based; conditions: Astrocyte, read-out: IC50 ± SD, NHA
From the text: as §1, §2

[7] = tested on: five cancer cell lines (LN229, U251, Capan-2, HeLa, HepG2); test: CCK-8 cytotoxic assay, summary over five cancer cell lines; format: cell-based; conditions: Homo sapiens, range over compounds 1 and 2 and five cancer cell lines, read-out: IC50 values (range) against five cancer cell lines
From the text: as §1
In the exponential phase of the growth, five tumor cell lines and one normal human astrocytes were plated onto 96-well plates at a concentration of 8000 cells/well for 24 h. […] Cell viability was determined according to reported assay methods using the commercial CCK-8 kit (Elabscience Biotechnology Co., Ltd., Wuhan, China). The optical density (OD) of each well was measured with an AMR-100 microplate reader at 450 nm (Allsheng Corporation, Hangzhou, China). […]

[8] = tested on: Bax/Bcl-2, cleaved caspase 3, cytochrome c in LN229 cells; test: Western blot of apoptosis-related proteins in LN229; format: cell-based, human; conditions: LN229, 24 h, compared with the control group
From the text: (§3) Primary antibodies against Bax (50599-2-Ig), Bcl-2 (26593-1-AP), Akt (10176-2-AP), p-Akt (28731-1-AP), PI3K (20584-1-AP), p-PI3K (60225-1-Ig), mTOR (28273-1-AP), p-mTOR (67778-1-Ig), Cytochrome C (10993-1-AP), β-actin (20536-1-AP), HRP-Goat-Anti-Mouse IgG (H+L) (SA00001-1), and HRP-Goat-Anti-Rabbit IgG (H+L) (SA00001-2) were obtained from Proteintech Group, Inc. (Rosemont, USA). Primary antibodies against EGFR (WL0682a), p-EGFR (WL03432) and cleaved caspase 3 (WL01992) were obtained from Wanleibio (Shenyang, China). The LN229 cells were treated with various concentrations of 1 or 0.1% DMSO for 24 h. A BCA Protein Assay Kit was used to measure the protein concentration, then equal amounts of protein samples were separated by 10% sodium dodecyl sulfate–polyacrylamide gel electrophoresis and transferred to a polyvinylidene fluoride membrane (Millipore, Burlington, MA, USA). The membranes were blocked for 2 h in Tris-buffered saline with PBST buffer, containing 5% skim milk. Then, the membranes were incubated with the appropriate primary antibodies overnight at 4 ℃. Then, the membranes were washed with PBST and reacted with a secondary horseradish peroxidase-conjugated antibody. Image Lab 5.2.1 (Biorad Laboratories, Hercules, CA, USA) was used to analyze the blots after detection using enhanced chemiluminescence (Millipore). Data analyses were performed using the GraphPad Prism software (San Diego, CA, USA).

[9] = tested on: EGFR/PI3K/Akt/mTOR signaling pathway in LN229 cells; test: Western blot of EGFR/PI3K/Akt/mTOR signaling in LN229; format: cell-based, human; conditions: LN229, 24 h
From the text: as §3

glioma cells LN229 = test: Flow cytometry analysis for apoptosis (Annexin V-FITC/PI); format: cell-based, human; conditions: different concentrations, 24 h
Protocol: Flow cytometry was used to analyze the effect of 1 on the apoptosis of glioma cells LN229. Cells were treated with different concentrations of 1 for 24 h. Then, the cells were collected and washed twice with cold PBS for five minutes (1000 rpm). The cells were analyzed for apoptosis by flow cytometry (BD, Franklin Lakes, NJ, USA) using the Annexin V-FITC/PI assay kit.

[10] = LN-229, LN229 cells, CCK-8, 24 h
[11] = NHA normal human astrocytes, CCK-8, 24 h

| Structure (SMILES) | IC50 ([1]; U-251, U251 cells, CCK-8, 24 h) [µM] | IC50 [2, 10] [µM] | IC50 ([3]; HeLa cells, CCK-8, 24 h) [µM] | IC50 ([4]; HepG2 cells, CCK-8, 24 h) [µM] | IC50 ([5]; Capan-2 cells, CCK-8, 24 h) [µM] | IC50 [6, 11] [µM] | other results |
| --- | --- | --- | --- | --- | --- | --- | --- |
| C=C1C(=O)OC2CC3C4CC=C5CC(OC6OC(CO)C(O)C(O)C6OC6OC(C)C(O)C(O)C6O)CCC5(C)C4CCC3(C)C12 (stereo not drawn) [Compound 6, pallidifloside D] |  |  |  |  |  |  | IC50 ([1]; U-251, 24 h): > 50 µM; IC50 ([2]; LN-229, 24 h): > 50 µM; IC50 ([3]; HeLa, 24 h): > 50 µM; IC50 ([4]; HepG2, 24 h): > 50 µM; IC50 ([5]; Capan-2, 24 h): > 50 µM; IC50 ([6]; Homo sapiens, 24 h): > 50 µM |
| COc1cccc2c1C(=O)c1c(O)c3c(c(O)c1C2=O)C[C@@](O)(C(=O)CO)C[C@@H]3O[C@H]1C[C@H](N)[C@H](O)[C@H](C)O1 [Doxorubicin, reference compound] | 0.21 ± 0.04 | 0.35 ± 0.05 | 0.18 ± 0.02 | 0.21 ± 0.02 | 0.18 ± 0.02 | > 50 |  |
| C=C1C(=O)OC2CC3C4CC=C5CC(OC6OC(CO)C(OC7OC(CO)C(O)C7O)C(O)C6OC6OC(C)C(O)C(O)C6O)CCC5(C)C4CCC3(C)C12 (stereo not drawn) [Compound 3] | > 50 | > 50 | > 50 | > 50 | > 50 | > 50 |  |
| CC(=O)C1=CCC2C3CC=C4C[C@@H](O[C@@H]5O[C@H](CO)[C@@H](O[C@@H]6O[C@@H](CO)[C@H](O)[C@H]6O)[C@H](O)[C@H]5O[C@@H]5O[C@@H](C)[C@H](O)[C@@H](O)[C@H]5O)CC[C@]4(C)C3CC[C@]12C (stereo partly drawn) [Compound 4, pregna-5,16-diene-3β-ol-20-one-3-O-α-L-arabinofuranosyl-(1 → 4)-[α-L-rhamnopyranosyl(1 → 2)]-β-D-glucopyranoside] | > 50 | > 50 | > 50 | > 50 | > 50 | > 50 |  |
| CC1CCC2(OC1)OC1CC3C4CC=C5CC(OC6OC(COC7(CO)OC(CO)C(O)C7O)C(OC7OC(CO)C(O)C7O)C(O)C6OC6OC(C)C(O)C(O)C6O)CCC5(C)C4CCC3(C)C1C2C [Compound 2, diosgenin-3-O-β-D-fructofuranosyl-(1 → 6)-[α-L-arabinofuranosyl-(1→4)]-[α-L-rhamnopyranosyl-(1→2)]-β-D-glucopyranoside] | 15.8 ± 0.65 | 15.4 ± 0.47 | 22.3 ± 1.33 | 18.8 ± 1.25 | 20.4 ± 1.05 | > 50 | IC50 [7]: 3.26 to 22.3 µM |
| Cc1c(CCC(C)COC2OC(CO)C(O)C(O)C2O)ccc2c1C1(C)CCC3C(CC=C4CC(OC5OC(CO)C(O)C(O)C5OC5OC(C)C(O)C(O)C5O)CCC43C)C1C2 (stereo not drawn) [Compound 12, parispseudoside B] | > 50 | > 50 | > 50 | > 50 | > 50 | > 50 |  |
| C=C1C(=O)OC2CC3C4CC=C5CC(OC6OC(CO)C(OC7OC(C)C(O)C(O)C7O)C(O)C6OC6OC(C)C(O)C(O)C6O)CCC5(C)C4CCC3(C)C12 (stereo not drawn) [Compound 5, chonglouoside SL-8] | > 50 | > 50 | > 50 | > 50 | > 50 | > 50 |  |
| CC1CCC2(OC1)OC1CC3C4CC=C5CC(OC6OC(COC7(CO)OC(CO)C(O)C7O)C(O)C(O)C6OC6OC(C)C(O)C(O)C6O)CCC5(C)C4CCC3(C)C1C2C [Compound 1, diosgenin-3-O-β-D-fructofuranosyl-(1→6)-[α-L-rhamnopyranosyl-(1 → 2)]-β-D-glucopyranoside] | 3.85 ± 0.44 | 4.18 ± 0.31 | 3.3 ± 0.38 | 4.32 ± 0.51 | 3.26 ± 0.34 | > 50 | expression of Bax/Bcl-2 [8]: significantly increased; expression of cleaved caspase 3 [8]: significantly increased; expression of cytochrome c [8]: significantly increased; expression level of p-Akt [9]: decreased; expression level of p-PI3K [9]: decreased; expression level of p-mTOR [9]: decreased; expression of total EGFR [9]: no evident effect; phosphorylation levels of EGFR [9]: significantly suppressed; ratio of apoptotic LN229 (Annexin V+/PI−) (glioma cells LN229): increased; ratio of living cells (Annexin V−/PI−) (glioma cells LN229): decreased; IC50 [7]: 3.26 to 22.3 µM |
| Cc1c(CCC(C)COC2OC(CO)C(O)C(O)C2O)ccc2c1C1(C)CCC3C(CC=C4CC(OC5OC(CO)C(OC6OC(C)C(OC7OC(C)C(O)C(O)C7O)C(O)C6O)C(O)C5OC5OC(C)C(O)C(O)C5O)CCC43C)C1C2 (stereo not drawn) [Compound 7, parispseudoside A] | > 50 | > 50 | > 50 | > 50 | > 50 | > 50 |  |
| Cc1c(CCC(C)COC2OC(CO)C(O)C(O)C2O)ccc2c1C1(C)CCC3C(CC=C4CC(OC5OC(CO)C(OC6OC(CO)C(O)C6O)C(O)C5OC5OC(C)C(O)C(O)C5O)CCC43C)C1C2 [Compound 8, 3-O-α-L-arabinofuranosyl-(1 → 4)-[α-L-rhamnopyranosyl (1 → 2)]-β-D-glucopyranosyl-β-D-chacotriosyl-26-O-β-D-glucopyranoside] | > 50 | > 50 | > 50 | > 50 | > 50 | > 50 |  |
| CC(=O)C1=CCC2C3CC=C4C[C@@H](O[C@@H]5O[C@H](CO)[C@@H](O)[C@H](O)[C@H]5O[C@@H]5O[C@@H](C)[C@H](O)[C@@H](O)[C@H]5O)CC[C@]4(C)C3CC[C@]12C (stereo partly drawn) [Compound 10, spongipregnolosides A] | > 50 | > 50 | > 50 | > 50 | > 50 | > 50 |  |
| Cc1c(CCC(C)COC2OC(CO)C(O)C(O)C2O)ccc2c1C1(C)CCC3C(CC=C4CC(OC5OC(CO)C(OC6OC(C)C(O)C(O)C6O)C(O)C5OC5OC(C)C(O)C(O)C5O)CCC43C)C1C2 (stereo not drawn) [Compound 9, aethioside A] | > 50 | > 50 | > 50 | > 50 | > 50 | > 50 |  |
| CC(=O)C1=CC[C@H]2[C@@H]3CC=C4C[C@@H](O[C@@H]5O[C@H](CO)[C@@H](O[C@@H]6O[C@@H](C)[C@H](O)[C@@H](O)[C@H]6O)[C@H](O)[C@H]5O[C@@H]5O[C@@H](C)[C@H](O)[C@@H](O)[C@H]5O)CC[C@]4(C)[C@H]3CC[C@]12C [Compound 11, hypoglaucin H] | > 50 | > 50 | > 50 | > 50 | > 50 | > 50 |  |

Source: PMC10138723, “Cytotoxic Steroidal Saponins Containing a Rare Fructosyl from the Rhizomes of Paris polyphylla var. latifolia” (International Journal of Molecular Sciences, 2023)
